# Assay results published in patent US10265333B2, “Lipid nanomaterial containing lysophosphatidylcholine or derivative thereof and method for preparing same” (priority 2013, dated 2019).
# Key:
# [1] = test system: hair-clipped dorsal back skins of mice; assay: Local irritation test in mice after single subcutaneous administration; format: in vivo; details: for Clinical signs: Normal appearance (% of mice) / Clinical signs: Normal appearance (mice/group) / Clinical signs: Skin ulcerative lesions (mice/group): male ICR mice, 14 days
# Procedure: In order to evaluate the local irritation of the LPC-containing lipid nanoparticle formulation (LPC-F; 18:0 LPC concentration: 10 mg/ml) prepared in example 1, 20, 10, and 5 ml/kg (18:0 LPC 200, 100, and 50 mg/kg) were single subcutaneously administered to hair-clipped dorsal back skins of mice. Based on the “Testing Guidelines for Safety Evaluation of Drugs” [2009] in Notification No. 2009-116 issued by the Korea Food and Drug Administration, the changes in mortality, body weight, clinical signs, gross and histopathological findings around injection sites during 14 days were compared between the LPC-containing lipid nanoparticle formulations and equal concentrations of lysophosphatidylcholine saline suspension (LPC-API) 10 mg/ml treated group. In the present test, saline was used as negative control, and the highest dosage 200 mg/kg was set based on the maximum permissible dosage 20 ml/kg in rodents (Flecknell, 1996; KFDA Guidelines, Notification 2009-116, 2009; OECD Guidelines, #423, 2001). The dosages were set to 10 and 5 ml/kg in middle and lowest dosage groups, respectively.
# Animal male ICR mice were 6-wk old upon receipt (body weight ranged in 30-32 g), and were 10-wk old after acclimatization for 28 days (body weight ranged in 36.4-49.0 g). The animals were distributed into the following groups for the test.
# All data were expressed as mean±standard deviation (SD) of five mice. Multiple comparison tests for different dosage groups were conducted. Variance homogeneity was examined using the Levene test (Levene A, Clin Otalary, 1981; 6:145-51). […] Statistical analyses were conducted using SPSS (Release 14.0 K, SPSS Inc., USA; Ludbrook, Clin Exp Pharmacol Physiol, 1997; 24:294-6). A p-value <0.05 was considered statistically significant.
# [2] = test system: heparinized rat (SD rat) bloods; assay: Hemolysis in heparinized rat blood (OD 570 nm of supernatant); format: cell-based
# Procedure: (§1) In order to evaluate the degree of hemolysis and erythrocyte aggregation induced by LPC-containing lipid nanoparticles (LPC-F; 18:0 LPC concentration: 10 mg/ml) prepared in example 1, 200 μl of saline, distilled water, six different concentration solutions (stock, 2, 4, 8, 16 and 32-fold diluted solutions) of LPC-F, or non-formulated lysophosphatidylcholine (LPC-API) 10 mg/ml concentrated saline solution were directly added into 1 ml of collected heparinized rat (SD rat) bloods, and then, incubated at 37° C. in shaking incubator at 100 rpm for 3 hrs. The prepared LPC-F was fold-diluted with saline to prepare six different concentrations of LPC-F. LPC-API 10 mg/ml concentrated solution was prepared through dispersion in saline, and then fold-diluted with saline to prepare six different concentrations of LPC-API Five independent experiments were repeatedly conducted. If possible, blood taken from same rats was used in each independent experiment. After the incubation in shaking incubator at 100 rpm, the formed erythrocyte aggregation was semi-quantitatively evaluated, and the OD values were calculated for the supernatant in each tube, which was prepared by centrifuging the incubated samples at 12,500 rpm for 10 minutes, and then reading the OD at 570 nm, respectively. Hemolysis was calculated by equation 1 below. The hemolytic reaction was considered positive if the hemolytic percentage was greater than 5%. Hemolytic percentage (%)=(OD sample−OD negative/(OD positive−OD negative)×100 [Equation 1]
# Where negative=saline, and positive=distilled water
# OD values and semiquantative erythrocyte aggregation scores were expressed by mean±standard deviation of five independent experiments. Multiple comparison tests for different dose groups were conducted. Variance homogeneity was examined using the Levene test (Levene A, Clin Otalary, 1981; 6:145-51). […] Statistical analyses were conducted using SPSS (Release 14.0 K, SPSS Inc., USA; Ludbrook, Clin Exp Pharmacol Physiol, 1997; 24:294-6). A p-value p<0.05 was considered statistically significant.
# [3] = test system: heparinized rat (SD rat) bloods; assay: Erythrocyte aggregation in heparinized rat blood (semiquantitative score); format: cell-based; details: all six different concentrations (stock to 32-fold diluted)
# Procedure: as §1, with “If possible, blood taken from same rats was used in each independent experiment.” left out, “The hemolytic reaction was considered positive if the hemolytic percentage was greater than 5%. Hemolytic percentage (%)=(OD sample−OD negative/(OD positive−OD negative)×100 [Equation 1]” left out
# Erythrocyte aggregation was evaluated based on semiquantative scores as follows: […]
# [4] = single s.c. 5 ml/kg (LPC 50 mg/kg)
# [5] = single s.c. 10 ml/kg (LPC 100 mg/kg)
# [6] = single s.c. 20 ml/kg (LPC 200 mg/kg)
substance,measurement,setting,value
lysophosphatidylcholine [LPC-API],Degree of ulcerative skin lesions around injection sites,"[1]; 200, 100, 50 mg/kg treated groups, from 48 hrs after end of treatment",slight [1+] or moderate [2+]
same,Histopathology: skin ulcerative lesions (% of mice),[1]; single s.c. 50 mg/kg,60%
same,Necropsy: skin ulcerative lesions around injection sites (% of mice),[1]; single s.c. 50 mg/kg,60%
same,Histopathology: skin ulcerative lesions (% of mice),[1]; single s.c. 100 mg/kg,60%
same,Necropsy: skin ulcerative lesions around injection sites (% of mice),[1]; single s.c. 100 mg/kg,60%
same,Histopathology: skin ulcerative lesions (% of mice),[1]; single s.c. 200 mg/kg,100%
same,Necropsy: skin ulcerative lesions around injection sites (% of mice),[1]; single s.c. 200 mg/kg,100%
same,"Histopathology, skins around injection sites: Normal (mice/group)",[1]; [4],2/5
same,Histopathology: hUL degree 1+ Slight (mice/group),[1]; [4],3/5
same,Histopathology: hUL degree 2+ Moderate (mice/group),[1]; [4],0/5
same,Histopathology: hUL degree 3+ Severe (mice/group),[1]; [4],0/5
same,"Histopathology: hUL, histopathological skin ulcerative lesions (mice/group)",[1]; [4],3/5
same,"Necropsy, skins around injection sites: Normal (mice/group)",[1]; [4],2/5
same,Necropsy: gUL degree 1+ Slight (mice/group),[1]; [4],3/5
same,Necropsy: gUL degree 2+ Moderate (mice/group),[1]; [4],0/5
same,Necropsy: gUL degree 3+ Severe (mice/group),[1]; [4],0/5
same,"Necropsy: gUL, gross skin ulcerative lesions (mice/group)",[1]; [4],3/5
same,Clinical signs: Normal appearance (% of mice),[1]; [4],(40%)
same,Clinical signs: Normal appearance (mice/group),[1]; [4],2/5
same,Clinical signs: Skin ulcerative lesions (mice/group),[1]; [4],3/5
same,"Histopathology, skins around injection sites: Normal (mice/group)",[1]; [5],2/5
same,Histopathology: hUL degree 1+ Slight (mice/group),[1]; [5],3/5
same,Histopathology: hUL degree 2+ Moderate (mice/group),[1]; [5],0/5
same,Histopathology: hUL degree 3+ Severe (mice/group),[1]; [5],0/5
same,"Histopathology: hUL, histopathological skin ulcerative lesions (mice/group)",[1]; [5],3/5
same,"Necropsy, skins around injection sites: Normal (mice/group)",[1]; [5],2/5
same,Necropsy: gUL degree 1+ Slight (mice/group),[1]; [5],3/5
same,Necropsy: gUL degree 2+ Moderate (mice/group),[1]; [5],0/5
same,Necropsy: gUL degree 3+ Severe (mice/group),[1]; [5],0/5
same,"Necropsy: gUL, gross skin ulcerative lesions (mice/group)",[1]; [5],3/5
same,Clinical signs: Normal appearance (% of mice),[1]; [5],(40%)
same,Clinical signs: Normal appearance (mice/group),[1]; [5],2/5
same,Clinical signs: Skin ulcerative lesions (mice/group),[1]; [5],3/5
same,"Histopathology, skins around injection sites: Normal (mice/group)",[1]; [6],0/5
same,Histopathology: hUL degree 1+ Slight (mice/group),[1]; [6],3/5
same,Histopathology: hUL degree 2+ Moderate (mice/group),[1]; [6],1/5
same,Histopathology: hUL degree 3+ Severe (mice/group),[1]; [6],1/5
same,"Histopathology: hUL, histopathological skin ulcerative lesions (mice/group)",[1]; [6],5/5
same,"Necropsy, skins around injection sites: Normal (mice/group)",[1]; [6],0/5
same,Necropsy: gUL degree 1+ Slight (mice/group),[1]; [6],3/5
same,Necropsy: gUL degree 2+ Moderate (mice/group),[1]; [6],1/5
same,Necropsy: gUL degree 3+ Severe (mice/group),[1]; [6],1/5
same,"Necropsy: gUL, gross skin ulcerative lesions (mice/group)",[1]; [6],5/5
same,Clinical signs: Normal appearance (% of mice),[1]; [6],(0%)
same,Clinical signs: Normal appearance (mice/group),[1]; [6],0/5
same,Clinical signs: Skin ulcerative lesions (mice/group),[1]; [6],5/5
same,Skin findings around injection sites (conclusion),"[1]; single subcutaneous treatment, compared with negative vehicle control",severe skin ulcerative lesions
same,Hemolytic percentage (%),"[2]; 2-fold diluted solution, 200 μl in 1 ml rat blood, 37° C., 3 hrs",148.65±15.01%
same,Hemolytic percentage (%),"[2]; 4-fold diluted solution, 200 μl in 1 ml rat blood, 37° C., 3 hrs",129.70±7.23%
same,Hemolytic percentage (%),"[2]; 8-fold diluted solution, 200 μl in 1 ml rat blood, 37° C., 3 hrs",117.67±5.97%
same,Hemolytic percentage (%),"[2]; 16-fold diluted solution, 200 μl in 1 ml rat blood, 37° C., 3 hrs",78.74±3.30%
same,Hemolytic percentage (%),"[2]; 32-fold diluted solution, 200 μl in 1 ml rat blood, 37° C., 3 hrs",26.86±6.40%
same,Hemolytic percentage (%),"[2]; stock (LPC 10 mg/ml), 200 μl in 1 ml rat blood, 37° C., 3 hrs",157.68±10.44%
same,Hemolytic percentage (%),[2]; throughout all different concentrations including the lowest 32-fold diluted solutions,greater than 5%
same,Erythrocyte aggregation scores as compared with non-treated or negative saline controls,[3],significant increases
